From ChEMBL document CHEMBL1201862, “PubChem BioAssay data set” (2004)
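48-hour exposure; five concentrations; linearly interpolated endpoints. The concentration for 50% growth inhibition is given as GI50.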 The source made the active and inactive calls. Rule as the data show it: active = GI50 up to about 1.1 µM and inactive = higher.

Assays:
Assay in all cases: NCI-60 cell line screen, 48 h
LOX IMVI = tested on: LOX IMVI
SW-620 = tested on: SW-620
UO-31 = tested on: UO-31
KM12 = tested on: KM12
NCI-H460 = tested on: NCI-H460
SK-OV-3 = tested on: SK-OV-3
HT-29 = tested on: HT-29
Malme-3M = tested on: Malme-3M
SNB-19 = tested on: SNB-19
OVCAR-5 = tested on: OVCAR-5
A498 = tested on: A498
RPMI-8226 = tested on: RPMI-8226
MOLT-4 = tested on: MOLT-4
SK-MEL-28 = tested on: SK-MEL-28
CAKI-1 = tested on: CAKI-1
UACC-62 = tested on: UACC-62
SF-295 = tested on: SF-295
SK-MEL-5 = tested on: SK-MEL-5
OVCAR-4 = tested on: OVCAR-4
SNB-75 = tested on: SNB-75

Structure (SMILES)	GI50 (LOX IMVI)	GI50 (SW-620)	GI50 (UO-31)	GI50 (KM12)	GI50 (NCI-H460)	GI50 (SK-OV-3)	GI50 (HT-29)	GI50 (Malme-3M)	GI50 (SNB-19)	GI50 (OVCAR-5)	GI50 (A498)	GI50 (RPMI-8226)	GI50 (MOLT-4)	GI50 (SK-MEL-28)	GI50 (CAKI-1)	GI50 (UACC-62)	GI50 (SF-295)	GI50 (SK-MEL-5)	GI50 (OVCAR-4)	GI50 (SNB-75)
COc1ccc2c(Cc3c4ccccc4cc4ccccc34)cncc2c1O	0.394 µM (active)	0.857 µM (active)	4.4 µM (inactive)	1.93 µM (inactive)	1.45 µM (inactive)	2.96 µM (inactive)	14.2 µM (inactive)	5.86 µM (inactive)	2.08 µM (inactive)	13.5 µM (inactive)	3.99 µM (inactive)	1.85 µM (inactive)	2.68 µM (inactive)	14.1 µM (inactive)	4.15 µM (inactive)	2.9 µM (inactive)	1.55 µM (inactive)	0.658 µM (active)	5.37 µM (inactive)	3.9 µM (inactive)
NN=C(S)Nc1cccc(Cl)c1	> 100 µM (inactive)	> 100 µM (inactive)	> 100 µM (inactive)	82 µM (inactive)	64.1 µM (inactive)	> 100 µM (inactive)	37.4 µM (inactive)	> 100 µM (inactive)	> 100 µM (inactive)	> 100 µM (inactive)	> 100 µM (inactive)	> 100 µM (inactive)	35.4 µM (inactive)	> 100 µM (inactive)	> 100 µM (inactive)	> 100 µM (inactive)	69.2 µM (inactive)	> 100 µM (inactive)	39.9 µM (inactive)	> 100 µM (inactive)
COc1ccc2c(c1)OC[C@@H]1c3cc(O)c(OCc4ccccc4)cc3O[C@H]21	30 µM (inactive)	29.6 µM (inactive)	20.1 µM (inactive)	30.2 µM (inactive)	17.3 µM (inactive)	17.3 µM (inactive)	34.2 µM (inactive)	28.1 µM (inactive)	46.8 µM (inactive)	66.5 µM (inactive)	6.62 µM (inactive)	10.2 µM (inactive)	29.5 µM (inactive)	32.9 µM (inactive)	24.1 µM (inactive)	18.1 µM (inactive)	28.8 µM (inactive)	13.1 µM (inactive)	16.6 µM (inactive)	14.2 µM (inactive)
CC1(C)OC2OC(COC(=O)C(c3ccccc3)c3ccccc3)C3OC(C)(C)OC3C2O1 (stereo not given)	9.68 µM (inactive)	6.87 µM (inactive)	35.5 µM (inactive)	5.87 µM (inactive)	4.84 µM (inactive)	> 10 µM (inactive)	8.79 µM (inactive)	46.8 µM (inactive)	66.7 µM (inactive)	> 10 µM (inactive)	> 10 µM (inactive)	4.5 µM (inactive)	5.02 µM (inactive)	43.5 µM (inactive)	> 10 µM (inactive)	9.27 µM (inactive)	10.7 µM (inactive)	7.11 µM (inactive)	8.71 µM (inactive)	17.1 µM (inactive)
COc1ccc(CC2COc3cc(O)cc(O)c3C2=O)cc1O (stereo not given)	8.83 µM (inactive)	3.56 µM (inactive)	17 µM (inactive)	2.81 µM (inactive)	6.15 µM (inactive)	5.64 µM (inactive)	13.6 µM (inactive)	4.21 µM (inactive)	4.83 µM (inactive)	12.3 µM (inactive)	99.3 µM (inactive)	3.01 µM (inactive)	4.3 µM (inactive)	3.75 µM (inactive)	4.88 µM (inactive)	8.57 µM (inactive)	4.3 µM (inactive)	5.13 µM (inactive)	11.8 µM (inactive)	1.37 µM (inactive)
CCN(CC)CCn1nc2c3c(c(NCCN)ccc31)Sc1cc(O)ccc1-2	0.146 µM (active)	0.351 µM (active)	12.3 µM (inactive)	0.615 µM (active)	0.0715 µM (active)	1.25 µM (inactive)	0.507 µM (active)	1.07 µM (active)	0.611 µM (active)	1.56 µM (inactive)	1.36 µM (inactive)	0.377 µM (active)	0.0396 µM (active)	1.38 µM (inactive)	0.516 µM (active)	0.371 µM (active)	0.861 µM (active)	0.733 µM (active)	0.528 µM (active)	0.813 µM (active)
